Source: patent US20220348877A1, “GENERATION OF QUIESCENT CARDIAC FIBROBLASTS FROM HUMAN INDUCED PLURIPOTENT STEM CELLS FOR IN VITRO MODELING OF CARDIAC FIBROSIS” (The Board of Trustees of the Leland Stanford Junior …, priority 2019, published 2022)
Entries after “also recorded” stand apart in the source; their conditions may differ.

What was measured:
[1] = tested on: human iPSC-CFs; assay: Collagen gel contraction assay; format: cell-based; details: gels imaged after 24 hrs
Description: Gel contraction assay. Collagen gel contraction assays were performed in three independent lines of iPSC-CFs (2.0×10^5 cells per well) using a Cell Contraction Assay kit (CBA5020, Cell Biolabs) as per the manufacturer's protocol. The cells were treated in the absence or presence of TGF-β±a TGF-β inhibitor SB431542 (SB). The gels were imaged after 24 hrs and gel area was quantified using ImageJ software (version 1.49).

[2] = tested on: human iPSC-CFs; assay: Quantitative real-time PCR of gene expression in drug-treated iPSC-CFs; format: cell-based
Description: (§1) Quantitative real-time PCR. Total RNA was isolated using the Qiagen miRNeasy Mini Kit (Qiagen Sciences, Inc, Germantown, Md.) following the manufacturer's instruction. For reverse transcription, a High Capacity RNA-to-cDNA kit (Life Technologies) was used, and the cDNA template was synthesized based on 1 μg of total mRNA. After mixing 0.2 μl of the cDNA template, 1 μl of TaqMan® primer sets (Life Technologies), 10 μl of TaqMan® Master Mix (Life Technologies), and 8.8 μl of ddH2O in the reaction system, real-time quantitative PCR was performed on the StepOne™ Real-Time PCR System (Life Technologies). Each reaction was run in triplicate. Expression values were normalized to the average expression of GAPDH.
(§2) Drug treatment. Unless otherwise stated, cells were treated with all drugs for 48 hrs. We used 5 ng/ml of TGFβ1 (240-B-010, R&D) to activate iPSC-CFs. Due to the short half-life, BNP (CYT-369, Prospec) was added into the medium three times a day. We used 20 μM of sacubitril (SML1380, Sigma) to inhibit ANP/BNP degradation. We used pirfenidone (S2907, Selleck Chemicals) and doxorubicin (25316-40-9, Selleck Chemicals) to test their anti-fibrotic and pro-fibrotic effects on iPSC-CFs, respectively.

[3] = tested on: human iPSC-CFs; assay: Immunoblotting of α-SMA in drug-treated iPSC-CFs; format: cell-based
Description: (§3) Immunoblotting and quantification. Cultured cells were homogenized in the RIPA buffer with proteinase and phosphatase inhibitor cocktails (78440, ThermoFisher), and quantified by Pierce™ BCA Protein Assay Kit (Pierce Biotechnology Inc.). A total of 20 μg protein was separated on NuPAGE® Novex® 4-12% Bis-Tris Protein Gels (Invitrogen, Carlsbad, Calif.). After being transferred to Amersham™ Hybond™ Blotting Membranes (GE Healthcare), proteins were incubated with primary antibodies against α-SMA (ab7817, Abcam), periostin (ab14041, Abcam), collagen Ill (ab7778, Abcam), fibronectin (ab6328, Abcam), MYH7 (sc-53089, Santa Cruz), and GAPDH (MA5-15738, Invitrogen). Band intensities for target bands were analyzed and quantified by the ImageJ Fuji program.
as §2

[4] = tested on: human iPSC-CFs; assay: Flow cytometry (FACS) of α-SMA+ myofibroblast population; format: cell-based; details: for effect on TGF-β-induced upregulation of α-SMA / propagation of the α-SMA+ population: in presence of TGF-β, FIG. 5I
Description: Fluorescence-activated cell sorting (FACS) analysis. Cells were dissociated into singlets by TrypLE™ (12605, Gibco) for 10 min at 37° C., and the cell suspension was filtered through a 40-μm cell strainer (BD Falcon, San Diego) to remove cell clumps. Single cells were fixed and permeabilized by BD CytofixCytoperm™ buffer (BD 554722) for 20 min at 4° C. Next, cells were incubated with primary antibodies followed by Alexa Fluor™ secondary antibodies (Invitrogen). Primary antibodies against COLI (ab90395, Abcam), DDR2 (sc-81707, Santa Cruz), TCF21 (hpa013189, Sigma-Aldrich), α-SMA (ab7817, Abcam), and WT1 (ab89901, Abcam) were used. The percentage of fibroblasts was calculated as the ratio of TCF21+, DDR2+, and COL-1+ cells in the whole population, respectively. The percentage of myofibroblasts was calculated as the ratio of α-SMA+ cells in the whole population.
as §2

[5] = tested on: human iPSC-CFs; assay: CF differentiation and passaging in the presence of TGF-β inhibitor; format: cell-based
Description: Differentiation of human iPSC-derived cardiac fibroblasts. Human iPSCs were treated with 6 μM of CHIR99021 for 2 days, recovered in RPMI+B27-insulin for 24 hrs, treated with 5 μM of IWR-1 (10161, Sigma) for 2 days, and then RPMI+B27-insulin for another 24 hrs. On day 6, human induced pluripotent stem cell-derived cardiac progenitor cells (iPSC-CPCs) were re-plated at a density of 20,000 cells/cm2 in advanced DMEM medium (12634028, Gibco®, Life Technologies). On day 7 or 8, cells were treated with 5 μM of CHIR99021 and 2 μM of retinoic acid (R2625, Sigma-Aldrich) for 2 days, and recovered in advanced DMEM for 3 days. Typically, the purity of human induced pluripotent stem cell-derived epicardial cells (iPSC-EPCs) is >90% (WT1+). Human iPSC-EPCs were re-plated and treated with […] (100-18B, PeproTech) and 10 μM of SB431542 (S1067, Selleck chemicals) in a fibroblast growth medium for another 6 days. >90% purity of iPSC-CFs (COL-I+/DDR2+/TCF21+) can be achieved as assessed by FACS. Cultures were maintained in a humidified atmosphere (95% air, 5% CO2) at 37° C.
Differentiation of Quiescent Cardiac Fibroblasts from iPSC Derived Epicardial Cells. 1. On day 14, prepare fibroblast growth medium containing 20 ng/ml of FGF2 and 10 μM of SB431542. 2. Aspirate the spent medium, add 1 ml of Accutase per well in a 6-well plate, and incubate the plate in a […], 5% CO2 incubator for 5 min. […]

[6] = tested on: human iPSC-CFs co-cultured with iPSC-CMs; assay: Indirect co-culture of iPSC-CFs with iPSC-CMs in the presence of TGF-β ± sacubitril (qPCR, immunoblot); format: cell-based
Description: as §1, §3, §2
Indirect and direct contact co-culture. […] As a control, iPSC-CMs were co-cultured with iPSC-CMs in the transwells. The co-cultures were incubated at 37° C. and 5% CO2 before analysis. For direct contact co-culture, we first labeled fibroblasts and iPSC-CMs with CFSE (C34554, Thermo Fischer) and Far cell trace red (C34564, Thermofisher) dyes, respectively. Then, iPSC-CFs were seeded on top of the iPSC-CM monolayer at a ratio of 1:5, allowing for direct cell-cell contact. After 5 days of co-culture, the two cell types were separated by FACS sorting for downstream molecular analyses. The medium used for co-culture is the mixture of RPMI+B27 and fibroblast growth medium at a ratio of 3:1.

[7] = circulatory system; degrading enzyme neprilysin; cited from earlier work
[8] = tested on: human iPSC-CFs; assay: Sirius red colorimetric assay of secreted collagen, iPSC-CFs; format: cell-based; details: 48 hrs
Description: Colorimetric assays. The cells were treated in the absence or presence of TGF-β for 48 hrs. Quantification of total secreted collagen in the cell culture supernatant was performed using a Sirius red collagen detection kit (9062, Chondrex). The colorimetric assay was performed according to the manufacturer's protocol.

[9] = tested on: primary CFs; assay: Sirius red colorimetric assay of secreted collagen, primary CFs; format: cell-based, human; details: 48 hrs
Description: (§4) Human primary skin, cardiac, lung, bladder fibroblast, and brain pericyte cultures. Human primary cardiac fibroblasts were isolated and cultured as follows: a piece of fresh right atrial biopsy was weighed, minced into small pieces (1-2 mm^3), and digested in 6-well peri-dishes as described. Human primary cardiac fibroblasts were grown and maintained in a fibroblast growth medium (C-23025, Promocell) supplemented with 1% penicillin-streptomycin (15140-122, Gibco) in a humidified atmosphere (95% air, 5% CO2) at 37° C. The medium was renewed every 2-3 days. Cells were passaged using standard trypsinization techniques at 80-90% confluency. The same protocol was also used to isolate and culture fibroblasts from human skin and lung tissues. Primary bladder fibroblasts were purchased from Lifeline (FC-0050) and maintained in the same fibroblast growth medium. Human brain pericytes were purchased from Cell systems (ACBRI 498) and cultured in SmGM-2 medium (Lonza, CC-3182). All experiments were carried out using cells at low cell passages (<P4) and cells were serum-starved for 24 hrs before treatment.
Colorimetric assays. The cells were treated in the absence or presence of TGF-β for 48 hrs. Quantification of total secreted collagen in the cell culture supernatant was performed using a Sirius red collagen detection kit (9062, Chondrex). […]

[10] = tested on: human primary CFs; assay: Quantitative real-time PCR of cardiac-specific genes in primary CFs; format: cell-based
Description: as §4, with “All experiments were carried out using cells at low cell passages (<P4) and cells were serum-starved for 24 hrs before treatment.” left out
Quantitative real-time PCR. […] After mixing 0.2 μl of the cDNA template, 1 μl of TaqMan® primer sets (Life Technologies), 10 μl of TaqMan® Master Mix (Life Technologies), and 8.8 μl of ddH2O in the reaction system, real-time quantitative PCR was performed on the StepOne™ Real-Time PCR System (Life Technologies). […]

Molecule: NC(=O)c1ccc(-c2nc(-c3ccc4c(c3)OCO4)c(-c3ccccn3)[nH]2)cc1 [SB431542, 4-[4-(1,3-benzodioxol-5-yl)-5-(2-pyridinyl)-1H-imidazol-2-yl]benzamide, reference compound]
- effect on TGF-β-induced collagen gel contraction ([1]; TGF-β ± SB): completely abrogated
- effect on TGF-β-induced upregulation of myofibroblast markers ACTA2 and POSTN ([2]; TGF-β ± SB): effectively inhibited
- effect on TGF-β-induced increase of α-SMA protein levels ([3]; CFs from different human iPSC lines, TGF-β ± SB): abolished
- effect on TGF-β-induced upregulation of α-SMA / propagation of the α-SMA+ population [4]: significantly suppresses
- levels of smooth muscle marker genes (ACTA2, CNN1, TAGLN, SMTN, MYH11) in iPSC-CFs ([5]; SB added during CF differentiation, transcriptional and protein levels): negligible levels
- αSMA+ cells (quiescent state preserved) ([5]; until passage 5, inhibitor present in fibroblast growth medium): ~5%

Molecule: COc1cccc2c1C(=O)c1c(O)c3c(c(O)c1C2=O)C[C@@](O)(C(=O)CO)C[C@@H]3O[C@H]1C[C@H](N)[C@H](O)[C@H](C)O1 [doxorubicin]
- induction of the α-SMA+ population (pro-fibrosis phenotype) ([4]; FIG. 5J, vs ctrl group): dose-dependent pattern; also recorded: dose-dependent induction

Molecule: Cc1ccc(=O)n(-c2ccccc2)c1 [pirfenidone]
- effect on TGF-β-induced upregulation of α-SMA / propagation of the α-SMA+ population [4]: significantly suppresses
- effect on TGF-β-induced upregulation of α-SMA / propagation of the α-SMA+ population ([4]; listed as Pirfenidone): dose dependent inhibitory effect

Molecule: CCOC(=O)[C@H](C)C[C@@H](Cc1ccc(-c2ccccc2)cc1)NC(=O)CCC(=O)O [sacubitril]
- mRNA levels of myofibroblast markers and ECM genes in the co-cultured condition ([6]; TGF-β, 20 μM sacubitril): further decreased
- protein levels of myofibroblast markers and ECM genes in the co-cultured condition ([6]; TGF-β, 20 μM sacubitril): further decreased
- anti-fibrotic effect seen in co-culture ([6]; iPSC-CMs and iPSC-CFs co-culture): significantly enhanced
- myofibroblast marker periostin ([6]; only when added to the co-culture system): significantly decreased

Molecule: atrial natriuretic peptide [ANP]
- half-life [7]: 3 min

Molecule: brain natriuretic peptide [BNP]
- mRNA levels of CF markers (PDGFRA and TCF21) ([2]; in the presence of TGF-β): higher levels
- mRNA levels of myofibroblast markers and ECM genes (ACTA2, POSTN, COL1A1, COL3A1) ([2]; in the presence of TGF-β): significantly lower
- α-SMA protein levels with escalating concentrations ([3]; in the presence of TGF-β, dose-dependent manner): significantly suppressed
- half-life [7]: 20 min

Molecule: transforming growth factor-β [TGF-β]
- collagen gel contraction effect vs vehicle group [1]: stronger
- expression levels of ACTA2 and POSTN vs vehicle treatment ([2]; 5 ng/ml TGFβ1, 48 hrs): significantly increased
- expression levels of ECM genes COL1A1, COL3A1, COL4A2, FN1 ([2]; vs vehicle): significantly increased
- expression of MMP1 ([2]; vs vehicle): downregulation
- expression of MMP2 ([2]; vs vehicle): upregulation
- expression of TIMP1, TIMP2, TIMP3 ([2]; vs vehicle): upregulation
- expression of proteoglycans (VCAN, CTGF, KAL1, TNC, SPARC) and focal adhesion molecules (ITGA4, ITGA5, ITGB5) ([2]; vs vehicle): upregulated expression
- α-SMA protein levels after treatment ([3]; CFs from different human iPSC lines): significantly increased
- secreted collagen content [8]: rise in collagen content
- secreted collagen content [9]: rise in collagen content
- expression levels of cardiac-specific genes (GATA4, TBX20, TCF21) vs vehicle-treated cells [10]: significantly downregulated
